The results in this text go back to ChEMBL document CHEMBL5465560, “Selectivity Literature for EUbOPEN Chemogenomic Library” (2024).

The target in assay [1] is Mitogen-activated protein kinase kinase kinase 11 (Homo sapiens) (UniProt Q16584). In words: Selectivity interaction (Ambit KINOMEscan and KiNATiv profiling in Jurkat cells) EUB0000090b MAP3K11. The note with it: at 1 µM. Format: cell-based.
In assay [2] the target is Serine/threonine-protein kinase 32A (Homo sapiens) (UniProt Q8WU08). Nature of the assay: Selectivity interaction (Ambit KINOMEscan and KiNATiv profiling in Jurkat cells) EUB0000090b STK32A. Format: cell-based. As to conditions: at 1 µM.
Assay [3] has as its target Tyrosine-protein kinase Fyn (Homo sapiens) (UniProt P06241). Nature of the assay: Selectivity interaction (KinomeScan (DiscoverX)) EUB0000607a FYN. The note with it: at 10 µM.
Assay [4] concerns the target Mitotic checkpoint serine/threonine-protein kinase BUB1 (Homo sapiens, UniProt O43683). In words: Selectivity interaction (KinomeScan (DiscoverX)) EUB0000666a BUB1. The note with it: at 10 µM.
Assay [5] addresses Tyrosine-protein kinase JAK1 (Homo sapiens, UniProt P23458). In words: Selectivity interaction (KinomeScan (DiscoverX)) EUB0000229b JAK1. As to conditions: at 10 µM.
The target of assay [6] is T1, Serine/threonine-protein kinase DCLK1 (Homo sapiens) (UniProt O15075).
T1 sequence (whole entry): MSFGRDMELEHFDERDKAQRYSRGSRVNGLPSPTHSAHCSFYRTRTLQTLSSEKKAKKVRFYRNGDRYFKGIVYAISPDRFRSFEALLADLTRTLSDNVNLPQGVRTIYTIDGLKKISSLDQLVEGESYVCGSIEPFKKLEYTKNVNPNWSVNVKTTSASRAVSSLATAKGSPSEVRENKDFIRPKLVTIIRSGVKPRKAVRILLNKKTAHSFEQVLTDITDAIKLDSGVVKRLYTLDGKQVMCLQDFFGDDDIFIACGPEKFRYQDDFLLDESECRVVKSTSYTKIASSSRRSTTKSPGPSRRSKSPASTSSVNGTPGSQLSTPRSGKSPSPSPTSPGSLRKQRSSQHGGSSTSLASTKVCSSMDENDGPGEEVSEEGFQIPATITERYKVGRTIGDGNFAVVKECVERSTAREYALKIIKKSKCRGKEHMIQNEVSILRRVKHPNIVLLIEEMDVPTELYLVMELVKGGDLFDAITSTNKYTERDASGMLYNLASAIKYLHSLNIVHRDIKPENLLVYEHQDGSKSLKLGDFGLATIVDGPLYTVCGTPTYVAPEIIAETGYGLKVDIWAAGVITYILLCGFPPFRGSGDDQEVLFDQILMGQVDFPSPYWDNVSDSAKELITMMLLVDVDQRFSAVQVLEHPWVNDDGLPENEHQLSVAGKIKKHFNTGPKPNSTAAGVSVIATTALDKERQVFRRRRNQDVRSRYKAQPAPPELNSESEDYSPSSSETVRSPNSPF
In words: Selectivity interaction (KinomeScan (DiscoverX)) EUB0000655a DCLK1. The note with it: at 10 µM.

In assay [7] the target is Ribosomal protein S6 kinase beta-1 (Homo sapiens, UniProt P23443). Nature of the assay: Selectivity interaction (KinomeScan (DiscoverX)) EUB0001619a RPS6KB1. The note with it: at 1 µM.
Assay [8] deals with Protein kinase C delta type (Homo sapiens) (UniProt Q05655). In words: Selectivity interaction (KinomeScan (DiscoverX)) EUB0001619a PRKCD. As to conditions: at 1 µM.
Assay [9] concerns the target 5'-AMP-activated protein kinase catalytic subunit alpha-1 (Homo sapiens, UniProt Q13131). Nature of the assay: Selectivity interaction (Kinase panel (Enzyme activity assay)) EUB0000612a PRKAA1.
Assay [10] concerns the target Serine/threonine-protein kinase PAK 3 (Homo sapiens) (UniProt O75914). In words: Selectivity interaction (ProQinase) EUB0000171b PAK3.
Assay [11] addresses T2, Ephrin type-B receptor 3 (Homo sapiens) (UniProt P54753).
T2 sequence (whole entry): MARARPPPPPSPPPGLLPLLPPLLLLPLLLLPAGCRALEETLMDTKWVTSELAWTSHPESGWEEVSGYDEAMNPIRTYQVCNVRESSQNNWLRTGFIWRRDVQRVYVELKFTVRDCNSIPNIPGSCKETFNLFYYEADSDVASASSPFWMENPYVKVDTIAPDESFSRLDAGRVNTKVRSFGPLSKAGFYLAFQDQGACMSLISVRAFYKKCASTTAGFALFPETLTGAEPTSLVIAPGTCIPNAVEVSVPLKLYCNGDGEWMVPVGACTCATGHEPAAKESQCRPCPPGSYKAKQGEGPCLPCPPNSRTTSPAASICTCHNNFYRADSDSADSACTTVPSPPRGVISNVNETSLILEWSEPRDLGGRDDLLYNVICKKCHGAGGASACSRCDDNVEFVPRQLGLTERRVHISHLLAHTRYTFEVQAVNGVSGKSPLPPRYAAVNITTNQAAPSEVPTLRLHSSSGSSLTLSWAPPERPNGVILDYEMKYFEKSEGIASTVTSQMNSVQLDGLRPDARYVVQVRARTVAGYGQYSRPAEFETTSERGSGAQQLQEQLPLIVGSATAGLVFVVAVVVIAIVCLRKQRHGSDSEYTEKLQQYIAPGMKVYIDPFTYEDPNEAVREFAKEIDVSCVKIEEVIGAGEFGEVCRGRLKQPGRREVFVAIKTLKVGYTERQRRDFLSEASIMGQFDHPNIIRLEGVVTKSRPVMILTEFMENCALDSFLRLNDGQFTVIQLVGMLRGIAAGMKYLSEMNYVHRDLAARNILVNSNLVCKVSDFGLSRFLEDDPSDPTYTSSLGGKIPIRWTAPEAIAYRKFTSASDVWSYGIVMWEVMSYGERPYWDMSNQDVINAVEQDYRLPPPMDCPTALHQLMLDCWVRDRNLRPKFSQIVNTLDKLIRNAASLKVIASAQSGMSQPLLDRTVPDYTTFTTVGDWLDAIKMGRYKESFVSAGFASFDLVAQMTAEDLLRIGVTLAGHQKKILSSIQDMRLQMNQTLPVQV
In words: Selectivity interaction (KinomeScan (DiscoverX)) EUB0000092b EPHB3. The note with it: at 10 µM.

In assay [12] the target is Cyclin-dependent kinase 7 (Homo sapiens, UniProt P50613). In words: Selectivity interaction (KinomeScan (DiscoverX)) EUB0000092b CDK7. The note with it: at 10 µM.
Assay [13] has as its target Mitogen-activated protein kinase 8 (Homo sapiens, UniProt P45983). Nature of the assay: Selectivity interaction (KinomeScan (DiscoverX)) EUB0000045b MAPK8.
The target of assay [14] is Serine/threonine-protein kinase PAK 6 (Homo sapiens) (UniProt Q9NQU5). Nature of the assay: Selectivity interaction (KinomeScan (DiscoverX)) EUB0000045b PAK6.
The target in assay [15] is Tyrosine-protein kinase SYK (Homo sapiens, UniProt P43405). In words: Selectivity interaction (KinomeScan (DiscoverX)) EUB0000618a SYK. As to conditions: at 10 µM.
Assay [16] has as its target Activated CDC42 kinase 1 (Homo sapiens, UniProt Q07912). In words: Selectivity interaction (KinomeScan (DiscoverX)) EUB0000595a TNK2. As to conditions: at 10 µM.

pIC50: −log10 of the molar value.

Sequence of Serine/threonine-protein kinase PAK 6 (Homo sapiens) (Q9NQU5 whole entry, looked up): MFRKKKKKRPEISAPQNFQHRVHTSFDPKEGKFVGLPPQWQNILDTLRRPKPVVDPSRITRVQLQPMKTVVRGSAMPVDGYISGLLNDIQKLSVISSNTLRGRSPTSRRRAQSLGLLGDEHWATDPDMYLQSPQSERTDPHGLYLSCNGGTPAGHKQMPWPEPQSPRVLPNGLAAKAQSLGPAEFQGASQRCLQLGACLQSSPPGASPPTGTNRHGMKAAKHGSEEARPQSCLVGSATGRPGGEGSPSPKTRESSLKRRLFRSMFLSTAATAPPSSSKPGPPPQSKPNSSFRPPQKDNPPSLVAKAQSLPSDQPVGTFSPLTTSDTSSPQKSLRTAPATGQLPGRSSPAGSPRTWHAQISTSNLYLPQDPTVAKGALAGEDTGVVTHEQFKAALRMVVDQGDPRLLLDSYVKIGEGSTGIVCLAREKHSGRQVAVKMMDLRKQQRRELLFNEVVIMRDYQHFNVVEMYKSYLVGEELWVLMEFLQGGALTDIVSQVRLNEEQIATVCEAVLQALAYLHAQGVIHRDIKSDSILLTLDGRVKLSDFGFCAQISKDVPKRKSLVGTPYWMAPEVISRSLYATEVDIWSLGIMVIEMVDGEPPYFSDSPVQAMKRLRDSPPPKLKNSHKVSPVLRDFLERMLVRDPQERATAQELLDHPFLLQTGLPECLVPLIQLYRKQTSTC
Sequence of Mitogen-activated protein kinase 8 (P45983 whole entry): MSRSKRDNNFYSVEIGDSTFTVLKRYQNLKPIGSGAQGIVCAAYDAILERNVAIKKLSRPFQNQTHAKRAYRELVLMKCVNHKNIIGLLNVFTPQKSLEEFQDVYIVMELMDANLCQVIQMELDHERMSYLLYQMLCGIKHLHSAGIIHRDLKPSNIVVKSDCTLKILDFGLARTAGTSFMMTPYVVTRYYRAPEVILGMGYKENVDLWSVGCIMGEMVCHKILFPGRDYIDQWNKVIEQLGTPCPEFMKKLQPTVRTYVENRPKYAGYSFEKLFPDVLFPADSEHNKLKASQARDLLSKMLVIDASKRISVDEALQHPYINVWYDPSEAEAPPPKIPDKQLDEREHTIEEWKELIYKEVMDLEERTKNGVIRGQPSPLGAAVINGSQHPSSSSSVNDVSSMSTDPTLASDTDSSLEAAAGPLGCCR
Sequence of Serine/threonine-protein kinase PAK 3 (Homo sapiens) (O75914 whole entry, looked up): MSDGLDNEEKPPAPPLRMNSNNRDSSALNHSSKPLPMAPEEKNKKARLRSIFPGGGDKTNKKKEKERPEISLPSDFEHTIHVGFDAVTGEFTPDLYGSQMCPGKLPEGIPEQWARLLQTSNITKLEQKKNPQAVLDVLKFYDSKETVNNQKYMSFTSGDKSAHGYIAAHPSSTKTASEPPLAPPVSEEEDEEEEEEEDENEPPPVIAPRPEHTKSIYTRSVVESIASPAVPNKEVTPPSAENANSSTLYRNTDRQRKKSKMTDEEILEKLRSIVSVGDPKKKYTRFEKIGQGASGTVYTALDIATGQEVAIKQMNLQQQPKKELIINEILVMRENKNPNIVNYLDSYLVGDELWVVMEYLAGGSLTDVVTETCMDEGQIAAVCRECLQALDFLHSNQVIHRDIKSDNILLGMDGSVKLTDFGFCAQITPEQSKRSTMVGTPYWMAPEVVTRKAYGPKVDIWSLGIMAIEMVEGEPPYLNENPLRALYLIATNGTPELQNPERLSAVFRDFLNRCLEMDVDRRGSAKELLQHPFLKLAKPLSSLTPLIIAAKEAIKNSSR
Sequence of Tyrosine-protein kinase JAK1 (P23458 whole entry): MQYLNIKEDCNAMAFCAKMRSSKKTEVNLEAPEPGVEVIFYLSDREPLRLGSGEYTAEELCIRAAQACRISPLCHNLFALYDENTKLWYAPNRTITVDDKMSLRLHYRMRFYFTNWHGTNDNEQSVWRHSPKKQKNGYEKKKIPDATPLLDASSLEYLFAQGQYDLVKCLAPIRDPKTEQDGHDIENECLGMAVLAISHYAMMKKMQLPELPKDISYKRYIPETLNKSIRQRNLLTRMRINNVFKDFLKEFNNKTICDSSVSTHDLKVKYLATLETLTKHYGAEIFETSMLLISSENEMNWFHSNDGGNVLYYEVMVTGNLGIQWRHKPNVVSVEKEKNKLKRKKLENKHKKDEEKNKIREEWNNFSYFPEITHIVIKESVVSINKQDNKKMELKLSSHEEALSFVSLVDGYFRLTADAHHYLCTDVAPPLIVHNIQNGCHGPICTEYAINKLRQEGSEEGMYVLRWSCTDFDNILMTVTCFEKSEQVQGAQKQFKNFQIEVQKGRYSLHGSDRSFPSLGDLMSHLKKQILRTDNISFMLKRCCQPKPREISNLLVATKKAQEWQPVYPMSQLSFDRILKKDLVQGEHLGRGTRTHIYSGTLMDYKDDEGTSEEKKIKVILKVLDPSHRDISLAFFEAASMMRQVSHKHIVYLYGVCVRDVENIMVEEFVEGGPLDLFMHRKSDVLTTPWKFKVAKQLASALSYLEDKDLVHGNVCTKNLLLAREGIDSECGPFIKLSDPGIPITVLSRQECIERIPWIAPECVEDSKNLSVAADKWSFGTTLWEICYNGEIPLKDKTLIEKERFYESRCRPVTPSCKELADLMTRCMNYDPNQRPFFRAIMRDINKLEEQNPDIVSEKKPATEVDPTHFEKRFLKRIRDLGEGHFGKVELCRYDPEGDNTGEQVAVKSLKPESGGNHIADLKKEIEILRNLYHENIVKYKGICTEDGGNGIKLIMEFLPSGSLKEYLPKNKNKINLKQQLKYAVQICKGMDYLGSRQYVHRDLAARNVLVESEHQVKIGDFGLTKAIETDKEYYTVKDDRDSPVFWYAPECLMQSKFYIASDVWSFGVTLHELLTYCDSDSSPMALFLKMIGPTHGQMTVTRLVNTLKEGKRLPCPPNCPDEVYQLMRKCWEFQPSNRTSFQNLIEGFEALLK
Sequence of Mitotic checkpoint serine/threonine-protein kinase BUB1 (O43683 whole entry, looked up): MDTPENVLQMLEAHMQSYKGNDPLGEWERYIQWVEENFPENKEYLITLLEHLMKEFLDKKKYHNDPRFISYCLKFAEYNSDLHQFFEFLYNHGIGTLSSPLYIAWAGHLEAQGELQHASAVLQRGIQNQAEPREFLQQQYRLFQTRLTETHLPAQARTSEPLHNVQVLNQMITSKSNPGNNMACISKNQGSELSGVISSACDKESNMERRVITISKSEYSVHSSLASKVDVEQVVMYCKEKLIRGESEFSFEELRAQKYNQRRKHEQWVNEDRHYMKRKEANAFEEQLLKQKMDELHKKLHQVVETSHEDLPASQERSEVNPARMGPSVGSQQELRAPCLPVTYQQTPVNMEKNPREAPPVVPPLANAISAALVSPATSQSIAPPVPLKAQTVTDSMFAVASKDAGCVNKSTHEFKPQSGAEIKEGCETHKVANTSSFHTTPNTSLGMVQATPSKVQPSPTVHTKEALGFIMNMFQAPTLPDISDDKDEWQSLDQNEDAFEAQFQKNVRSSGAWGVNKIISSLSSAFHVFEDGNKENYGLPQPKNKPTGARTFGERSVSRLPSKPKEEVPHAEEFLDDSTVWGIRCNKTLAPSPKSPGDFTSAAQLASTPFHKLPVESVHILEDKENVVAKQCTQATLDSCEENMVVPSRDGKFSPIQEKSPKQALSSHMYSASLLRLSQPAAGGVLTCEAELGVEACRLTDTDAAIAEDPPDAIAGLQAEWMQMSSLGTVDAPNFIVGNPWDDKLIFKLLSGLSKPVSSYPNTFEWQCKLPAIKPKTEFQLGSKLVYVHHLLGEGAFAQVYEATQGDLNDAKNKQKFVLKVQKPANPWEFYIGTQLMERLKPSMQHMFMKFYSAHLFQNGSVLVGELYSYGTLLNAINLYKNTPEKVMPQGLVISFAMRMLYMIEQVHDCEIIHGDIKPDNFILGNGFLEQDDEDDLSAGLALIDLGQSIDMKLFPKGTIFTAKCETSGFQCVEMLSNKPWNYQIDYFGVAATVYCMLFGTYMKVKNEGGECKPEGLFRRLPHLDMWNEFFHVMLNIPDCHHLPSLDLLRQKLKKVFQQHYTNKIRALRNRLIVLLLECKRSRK
Sequence of Ribosomal protein S6 kinase beta-1 (P23443 whole entry, looked up): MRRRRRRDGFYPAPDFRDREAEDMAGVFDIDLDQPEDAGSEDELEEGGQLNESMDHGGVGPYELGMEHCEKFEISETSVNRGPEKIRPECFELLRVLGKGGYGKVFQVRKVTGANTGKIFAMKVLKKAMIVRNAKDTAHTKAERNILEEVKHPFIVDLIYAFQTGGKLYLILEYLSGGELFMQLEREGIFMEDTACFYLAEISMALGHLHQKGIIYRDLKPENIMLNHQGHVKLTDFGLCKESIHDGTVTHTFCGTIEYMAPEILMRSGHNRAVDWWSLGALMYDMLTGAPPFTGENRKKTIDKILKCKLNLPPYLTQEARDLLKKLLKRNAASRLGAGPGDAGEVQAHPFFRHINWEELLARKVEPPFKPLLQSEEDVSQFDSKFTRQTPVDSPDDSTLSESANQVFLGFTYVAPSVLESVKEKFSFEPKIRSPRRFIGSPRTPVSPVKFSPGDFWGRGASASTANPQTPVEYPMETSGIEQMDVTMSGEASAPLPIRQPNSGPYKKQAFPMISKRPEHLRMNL
Sequence of Serine/threonine-protein kinase 32A (Homo sapiens) (Q8WU08 whole entry): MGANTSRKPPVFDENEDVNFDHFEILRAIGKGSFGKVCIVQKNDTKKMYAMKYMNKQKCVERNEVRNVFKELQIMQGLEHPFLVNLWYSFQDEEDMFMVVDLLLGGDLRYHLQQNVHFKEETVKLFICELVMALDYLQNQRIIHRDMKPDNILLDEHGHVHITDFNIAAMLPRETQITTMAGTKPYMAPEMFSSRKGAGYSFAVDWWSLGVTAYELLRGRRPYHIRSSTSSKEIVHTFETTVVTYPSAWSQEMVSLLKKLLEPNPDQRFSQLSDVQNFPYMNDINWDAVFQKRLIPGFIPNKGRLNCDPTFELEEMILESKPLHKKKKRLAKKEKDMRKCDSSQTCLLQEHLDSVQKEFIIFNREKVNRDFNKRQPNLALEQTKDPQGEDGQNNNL

On to `CN(C)C/C=C/C(=O)Nc1ccc(C(=O)N2CCCC(Nc3ncc(Cl)c(-c4c[nH]c5ccccc45)n3)C2)cc1` (centres undefined), for which the results for the % of control in assay [1] and in assay [2] were 84% and 99%, respectively.
For `CNC(=O)Nc1ccc(-c2nc(N3CC4CCC(C3)O4)c3cnn(C4CCC5(CC4)OCCO5)c3n2)cc1`, the % of control in assay [3] was 70%.
The molecule `O=C(NOC[C@H](O)CO)c1ccc(F)c(F)c1Nc1ccc(I)cc1F` gave a % of control in assay [4] of 100%.
Turning to `COc1cc(N(C)c2ccnc3ccc(C(F)(F)F)cc23)cc(OC)c1OC`, the % binding in assay [5] was found to be 70%.
For `CN(C)CCOc1ccc(-c2nc(-c3ccncc3)c(-c3ccc4c(c3)CC/C4=N\O)[nH]2)cc1`, the % of control in [6] was 88%.
`N#Cc1cccc(-c2c[nH]c3ncnc(N4CCOCC4)c23)c1`: the % of control was 100% in assay [7] and 67% in [8].
As usually defined, the pIC50 is the IC50 on a negative log10 scale, so that one unit is a factor of ten. Low values mean a high IC50, high ones a low IC50. `CCc1cccc(CC)c1NC(=O)c1nn(C)c2c1CCc1cnc(Nc3ccc(C(=O)NC4CCN(C)CC4)cc3OC(F)(F)F)nc1-2` had a negative logarithm of the IC50 (pIC50) in [9] of under 5.00.
For `C=CC(=O)Nc1cccc(C(=O)Nc2ccc(Nc3cc(-c4[nH]c(SC)nc4C)ccn3)cc2)c1`, the figures for the % of control in assay [10] (at 1 µM) and in assay [10] (at 5 µM) were 98% and 83%, respectively.
As for `CCC(=O)N1CCN(c2ccc(-n3c(=O)ccc4cnc5ccc(-c6cnc7ccccc7c6)cc5c43)cc2C(F)(F)F)CC1`, the % of control worked out at 85% in assay [11] and 57% in assay [12].
On to `C=CC(=O)Nc1cc(-n2c(=O)ccc3cnc4ccc(-c5ccc(NS(C)(=O)=O)cc5)cc4c32)ccc1C`, for which the % of control was found to be 93% in [13] (at 1 µM), 14% in [13] (at 10 µM), 100% in assay [14] (at 1 µM) and 73% in assay [14] (at 10 µM).
Consider `O[C@H]1CC[C@H](Nc2ncc3nc(Nc4c(F)cc(F)cc4F)n([C@H]4CCOC4)c3n2)CC1`, for which, in assay [15], the % of control worked out at 100%.
As for `COCC(=O)NC/C=C/c1ccc2ncnc(Nc3ccc(Oc4ccc(C)nc4)c(C)c3)c2c1` [CP-724714], in assay [16], the % of control was determined as 78%.
